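Dose response: 5 concentrations. Exposure: 48 h. Format: 96-well plates. Endpoint: linear interpolation; highest concentration if not reached. GI50: concentration for 50% inhibition of growth. TGI: concentration producing complete growth inhibition.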
Tests used:
Assay in all cases: NCI tumour cell line growth inhibition, 48 h
[1] = test system: HOP-62 NSCLC
[2] = test system: COLO 205 colon
[3] = test system: EKVX NSCLC
[4] = test system: ACHN renal
[5] = test system: MALME-3M melanoma
[6] = test system: SN12C renal
[7] = test system: SK-MEL-2 melanoma
[8] = test system: U251 CNS
[9] = test system: NCI-H23 lung
[10] = test system: SR leukemia
[11] = test system: A549 NSCLC
[12] = test system: SNB-19 CNS
[13] = test system: OVCAR-3 ovarian
[14] = test system: SNB-75 CNS
[15] = test system: NCI/ADR-RES ovarian
[16] = test system: SF-295 CNS
[17] = test system: NCI-H460 lung
[18] = test system: HCT-116 colon
[19] = test system: UO-31 renal
[20] = test system: HL-60(TB) leukemia
[21] = test system: M14 melanoma
[22] = test system: K-562 leukemia
[23] = test system: HCC-2998 colon
[24] = test system: UACC-257 melanoma
[25] = test system: SF-539 CNS
[26] = test system: HCT-15 colon
[27] = test system: OVCAR-4 ovarian
[28] = test system: RPMI-8226 leukemia
[29] = test system: MDA-MB-231 breast
[30] = test system: KM12 colon
[31] = test system: RXF 393 renal
[32] = test system: MCF7 breast
[33] = test system: UACC-62 melanoma
[34] = test system: NCI-H226 lung
[35] = test system: SF-268 CNS
[36] = test system: IGROV1 ovarian
[37] = test system: SK-OV-3 ovarian
[38] = test system: PC-3 prostate
[39] = test system: NCI-H522 lung
[40] = test system: BT-549 breast
[41] = test system: SK-MEL-28 melanoma
[42] = test system: OVCAR-5 ovarian
[43] = test system: HS 578T breast
[44] = test system: SK-MEL-5 melanoma
[45] = test system: LOX IMVI melanoma
[46] = test system: HT29 colon
[47] = test system: T-47D breast
[48] = test system: TK-10 renal
[49] = test system: DU-145 prostate
[50] = test system: OVCAR-8 ovarian
[51] = test system: MOLT-4 leukemia
[52] = test system: HOP-92 NSCLC
[53] = test system: MDA-MB-435
[54] = test system: SW-620 colon
[55] = test system: 786-0 renal
[56] = test system: CCRF-CEM leukemia
[57] = test system: A498 renal
[58] = test system: CAKI-1 renal
[59] = test system: MDA-N

## O=C(C(=O)c1cccnc1)c1cccnc1
[1]
  GI50: > 100 µM
  TGI: > 100 µM
[2]
  GI50: > 100 µM
  TGI: > 100 µM
[3]
  GI50: > 100 µM
  TGI: > 100 µM
[4]
  GI50: > 100 µM
  TGI: > 100 µM
[5]
  GI50: > 100 µM
  TGI: > 100 µM
[6]
  GI50: > 100 µM
  TGI: > 100 µM
[7]
  GI50: > 100 µM
  TGI: > 100 µM
[8]
  GI50: > 100 µM
  TGI: > 100 µM
[9]
  GI50: > 100 µM
  TGI: > 100 µM
[10]
  GI50: > 100 µM
  TGI: > 100 µM
[11]
  GI50: > 100 µM
  TGI: > 100 µM
[12]
  GI50: > 100 µM
  TGI: > 100 µM
[13]
  GI50: > 100 µM
  TGI: > 100 µM
[14]
  GI50: > 100 µM
  TGI: > 100 µM
[15]
  GI50: > 100 µM
  TGI: > 100 µM
[16]
  GI50: > 100 µM
  TGI: > 100 µM
[17]
  GI50: > 100 µM
  TGI: > 100 µM
[18]
  GI50: > 100 µM
  TGI: > 100 µM
[19]
  GI50: > 100 µM
  TGI: > 100 µM
[20]
  GI50: > 100 µM
  TGI: > 100 µM
[21]
  GI50: > 100 µM
  TGI: > 100 µM
[22]
  GI50: > 100 µM
  TGI: > 100 µM
[23]
  GI50: > 100 µM
  TGI: > 100 µM
[24]
  GI50: > 100 µM
  TGI: > 100 µM
[25]
  GI50: > 100 µM
  TGI: > 100 µM
[26]
  GI50: > 100 µM
  TGI: > 100 µM
[27]
  GI50: > 100 µM
  TGI: > 100 µM
[28]
  GI50: > 100 µM
  TGI: > 100 µM
[29]
  GI50: > 100 µM
  TGI: > 100 µM
[30]
  GI50: > 100 µM
  TGI: > 100 µM
[31]
  GI50: > 100 µM
  TGI: > 100 µM
[32]
  GI50: > 100 µM
  TGI: > 100 µM
[33]
  GI50: > 100 µM
  TGI: > 100 µM
[34]
  GI50: > 100 µM
  TGI: > 100 µM
[35]
  GI50: > 100 µM
  TGI: > 100 µM
[36]
  GI50: > 100 µM
  TGI: > 100 µM
[37]
  GI50: > 100 µM
  TGI: > 100 µM
[38]
  GI50: > 100 µM
  TGI: > 100 µM
[39]
  GI50: > 100 µM
  TGI: > 100 µM
[40]
  GI50: > 100 µM
  TGI: > 100 µM
[41]
  GI50: > 100 µM
  TGI: > 100 µM
[42]
  GI50: > 100 µM
  TGI: > 100 µM
[43]
  GI50: > 100 µM
  TGI: > 100 µM
[44]
  GI50: > 100 µM
  TGI: > 100 µM
[45]
  GI50: > 100 µM
  TGI: > 100 µM
[46]
  GI50: > 100 µM
  TGI: > 100 µM
[47]
  GI50: > 100 µM
  TGI: > 100 µM
[48]
  GI50: > 100 µM
  TGI: > 100 µM
[49]
  GI50: > 100 µM
  TGI: > 100 µM
[50]
  GI50: > 100 µM
  TGI: > 100 µM
[51]
  GI50: > 100 µM
  TGI: > 100 µM
[52]
  GI50: > 100 µM
  TGI: > 100 µM
[53]
  GI50: > 100 µM
  TGI: > 100 µM
[54]
  GI50: > 100 µM
  TGI: > 100 µM
[55]
  GI50: > 100 µM
  TGI: > 100 µM
[56]
  GI50: > 100 µM
  TGI: > 100 µM
[57]
  GI50: > 100 µM
  TGI: > 100 µM
[58]
  GI50: > 100 µM
  TGI: > 100 µM

## O=C(O)c1ccc(Nc2nc3ccc(C(F)(F)F)cc3nc2C(=O)O)cc1
[1]
  TGI: > 100 µM
[2]
  TGI: > 100 µM
[3]
  TGI: > 100 µM
[4]
  TGI: > 100 µM
[5]
  TGI: > 100 µM
[6]
  TGI: > 100 µM
[7]
  TGI: > 100 µM
[8]
  TGI: > 100 µM
[9]
  TGI: > 100 µM
[10]
  TGI: > 100 µM
[11]
  TGI: > 100 µM
[12]
  TGI: > 100 µM
[13]
  TGI: > 100 µM
[14]
  TGI: > 100 µM
[15]
  TGI: > 100 µM
[16]
  TGI: > 100 µM
[17]
  TGI: > 100 µM
[18]
  TGI: > 100 µM
[19]
  TGI: > 100 µM
[20]
  TGI: > 100 µM
[21]
  TGI: > 100 µM
[22]
  TGI: > 100 µM
[23]
  TGI: > 100 µM
[24]
  TGI: > 100 µM
[25]
  TGI: > 100 µM
[26]
  TGI: > 100 µM
[27]
  TGI: > 100 µM
[28]
  TGI: > 100 µM
[29]
  TGI: > 100 µM
[30]
  TGI: > 100 µM
[31]
  TGI: > 100 µM
[32]
  TGI: > 100 µM
[33]
  TGI: > 100 µM
[34]
  TGI: > 100 µM
[35]
  TGI: > 100 µM
[36]
  TGI: > 100 µM
[37]
  TGI: > 100 µM
[38]
  TGI: > 100 µM
[39]
  TGI: > 100 µM
[41]
  TGI: > 100 µM
[42]
  TGI: > 100 µM
[43]
  TGI: > 100 µM
[44]
  TGI: > 100 µM
[45]
  TGI: > 100 µM
[46]
  TGI: > 100 µM
[47]
  TGI: > 100 µM
[59]
  TGI: > 100 µM
[48]
  TGI: > 100 µM
[49]
  TGI: > 100 µM
[50]
  TGI: > 100 µM
[51]
  TGI: > 100 µM
[52]
  TGI: > 100 µM
[53]
  TGI: > 100 µM
[54]
  TGI: > 100 µM
[55]
  TGI: > 100 µM
[56]
  TGI: > 100 µM
[58]
  TGI: > 100 µM

## Nc1nc(N)c2c(-c3ccccc3)ccnc2n1
[1]
  TGI: > 100 µM
[2]
  TGI: > 100 µM
[3]
  TGI: > 100 µM
[4]
  TGI: > 100 µM
[5]
  TGI: > 100 µM
[6]
  TGI: > 100 µM
[7]
  TGI: > 100 µM
[8]
  TGI: > 100 µM
[9]
  TGI: > 100 µM
[10]
  TGI: > 100 µM
[12]
  TGI: > 100 µM
[13]
  TGI: > 100 µM
[16]
  TGI: > 100 µM
[17]
  TGI: > 100 µM
[18]
  TGI: > 100 µM
[19]
  TGI: > 100 µM
[20]
  TGI: > 100 µM
[22]
  TGI: > 100 µM
[23]
  TGI: > 100 µM
[24]
  TGI: > 100 µM
[27]
  TGI: > 100 µM
[28]
  TGI: > 100 µM
[29]
  TGI: > 100 µM
[31]
  TGI: > 100 µM
[32]
  TGI: > 100 µM
[33]
  TGI: > 100 µM
[34]
  TGI: > 100 µM
[35]
  TGI: > 100 µM
[36]
  TGI: > 100 µM
[37]
  TGI: > 100 µM
[38]
  TGI: > 100 µM
[39]
  TGI: > 100 µM
[40]
  TGI: > 100 µM
[41]
  TGI: > 100 µM
[42]
  TGI: > 100 µM
[44]
  TGI: > 100 µM
[45]
  TGI: > 100 µM
[46]
  TGI: > 100 µM
[59]
  TGI: > 100 µM
[48]
  TGI: > 100 µM
[49]
  TGI: > 100 µM
[52]
  TGI: > 100 µM
[53]
  TGI: > 100 µM
[54]
  TGI: > 100 µM
[55]
  TGI: > 100 µM
[56]
  TGI: > 100 µM
[57]
  TGI: > 100 µM
[58]
  TGI: > 100 µM

Reference: PubChem BioAssay (NCI)
